Data: patent publication US8178506B2, “Oligomeric compounds and compositions for use in modulation of small non-coding RNAs” (Regulus Therapeutics Inc., priority 2003, dated 2012)
In the oligonucleotide strings, read from the 5' end, every base follows the letter of its sugar. An asterisk marks phosphorothioate; unmarked linkages are phosphodiester. Other units and linkages are bracketed, terminal groups are in braces. A string of capitals states the bases alone. e = 2'-O-(2-methoxyethyl) (MOE); [5mC] = 5-methylcytosine; d = 2'-deoxy (DNA)

What was measured:
mir-21 miRNA = assay: pGL3-mir-21 sensor luciferase assay in HeLa cells; assay type: cell-based, human; details: Table 44, pGL3-mir-21 sensor-expressing HeLa cells
Source text: In order to assess the ability of miRNAs to bind predicted miRNA binding sites and regulate the expression of the luciferase reporter, in some embodiments, expression systems based on the pGL3-Control (Promega Corp., Madison Wis.) reporter vector and comprising either a mir-15a, mir-21, or a mir-23b miRNA binding site were developed and used in transient transfections of HeLa cells to determine whether the endogenous mir-15a, mir-21, or mir-23b miRNAs, respectively, could repress luciferase reporter gene expression.
The pGL3-mir-21 sensor plasmid was created by cloning the sequence ([…]; SEQ ID NO: 335), representing a sequence complementary to the mir-21 miRNA, into the Xba site of the pGL3-Control plasmid, placing the potential miRNA-binding site in the 3′UTR of the luciferase reporter. This reporter plasmid was used to transfect HeLa cells and it was observed that the endogenous mir-21 miRNA was able to inhibit luciferase expression from the pGL3-mir-21 sensor plasmid. Thus, to further evaluate the ability of the mir-21 miRNA to bind this target site encoded by the pGL3-mir-21 sensor plasmid, and to assess the ability of oligomeric compounds to interfere with mir-21-mediated silencing, pGL3-mir-21 sensor-expressing HeLa cells were treated with varying concentrations (10 nM or 50 nM) of the following oligomeric compounds: ISIS Number 327917 (SEQ ID NO: 335), a phosphorothioate uniform 2′-MOE oligomeric compound; ISIS Number 338697 ([…]; herein incorporated as SEQ ID NO: 524), a uniform 2′-MOE oligomeric compound targeting the mir-21 pri-miRNA molecule; and ISIS Number 328415 (SEQ ID NO: 524), a 2′-MOE 5-10-5 gapmer oligomeric compound targeting the mir-21 pri-miRNA. The uniform 2′-MOE phosphorothioate oligomeric compound ISIS Number 327901 (SEQ ID NO: 319) targeting an unrelated miRNA (mir-143) was used as a negative control. The data are the average of three trials and are presented in Table 44 as percent untreated control (luciferase plasmid only, not treated with oligomeric compound) luciferase expression, normalized to pRL-CMV levels.
In one embodiment, the oligomeric compounds ISIS Number 327917 (SEQ ID NO: 335), the phosphorothioate uniform 2′-MOE targeting mature mir-21; ISIS Number 358768 (SEQ ID NO: 918), the uniform 2′-MOE targeting the mir-21 pri-miRNA which stimulated the largest increase in pri-miRNA expression levels by real time quantitative RT-PCR; and ISIS Number 345382 (SEQ ID NO: 335), the 5-10-7 phosphorothioate 2′-MOE gapmer targeting mature mir-21 were selected for dose response studies in HeLa cells using the luciferase reporter system described in Example 27. ISIS Number 342683 (SEQ ID NO: 790), representing the scrambled nucleotide sequence of an unrelated PTP1B antisense oligonucleotide, was used as a negative control. HeLa cells expressing the pGL3-mir-21 sensor plasmid (described in Example 27) were treated with 1.9, 5.5, 16.7, and 50 nM of these oligomeric compounds, to assess the ability of oligomeric compounds to interfere with endogenous mir-21-mediated silencing of the pGL3-mir-21 sensor plasmid. The data are presented in Table 50 as percent untreated control (luciferase plasmid only, not treated with oligomeric compound) luciferase expression, normalized to pRL-CMV levels.

T47D cells = assay: Caspase-3 activity assay (apoptosis) in T47D cells; details: T47D cells, 200 nM, 48 hours, relative to untreated control

Substance	luciferase expression % UTC (mir-21 miRNA; 10 nM) [% UTC]	luciferase expression % UTC (mir-21 miRNA; 50 nM) [% UTC]	Fold Increase over UTC (caspase activity) (T47D cells)
338697 (antisense TGCCATGAGATTCAACAGTC; all 2'-MOE, all phosphorothioate, methylation of C not given here) [compound 338697]	87.0	84.8	
328415 (antisense eT*eG*e[5mC]*e[5mC]*eA*dT*dG*dA*dG*dA*dT*dT*d[5mC]*dA*dA*e[5mC]*eA*eG*eT*e[5mC]) [compound 328415]	66.0	104.4	1.1
